Measured values reported in article PMC12114461, “A Natural Inhibitor, 1′S-1′-Acetoxychavicol Acetate, Against Testosterone-Induced Alopecia via NADPH Oxidase Regulation” (Molecules, 2025).

Assays:
Assay type in all cases: biochemical
[1] = molecular target: T1, Nox4 (hNox4) (Homo sapiens, UniProt Q9NPH5); assay: lucigenin chemiluminescence ROS assay in Drosophila membranes expressing hNox4
T1 construct: membranes from transgenic Drosophila (Duox knockdown) over-expressing human Nox4
T1 sequence (Q9NPH5 1-578): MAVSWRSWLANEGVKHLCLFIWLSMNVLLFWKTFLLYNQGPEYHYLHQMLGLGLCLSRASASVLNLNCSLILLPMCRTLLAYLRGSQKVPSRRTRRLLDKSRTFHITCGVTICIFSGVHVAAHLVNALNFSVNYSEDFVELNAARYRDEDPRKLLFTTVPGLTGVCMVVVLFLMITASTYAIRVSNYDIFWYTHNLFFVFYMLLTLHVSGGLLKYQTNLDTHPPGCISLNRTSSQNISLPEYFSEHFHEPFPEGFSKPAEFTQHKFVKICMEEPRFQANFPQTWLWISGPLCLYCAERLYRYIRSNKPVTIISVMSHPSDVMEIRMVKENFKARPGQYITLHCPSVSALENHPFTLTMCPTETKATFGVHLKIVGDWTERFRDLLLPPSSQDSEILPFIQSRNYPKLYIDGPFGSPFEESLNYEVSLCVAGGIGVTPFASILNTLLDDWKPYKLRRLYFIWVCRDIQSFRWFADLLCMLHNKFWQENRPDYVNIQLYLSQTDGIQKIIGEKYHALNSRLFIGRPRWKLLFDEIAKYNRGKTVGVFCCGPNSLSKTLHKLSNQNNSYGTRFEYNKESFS

[2] = molecular target: T2, Nox2 (hNox2) (Homo sapiens, UniProt P04839); assay: lucigenin chemiluminescence ROS assay in Drosophila membranes expressing hNox2
T2 construct: gene CYBB; membranes from transgenic Drosophila (Duox knockdown) over-expressing human Nox2
T2 sequence (P04839 2-570): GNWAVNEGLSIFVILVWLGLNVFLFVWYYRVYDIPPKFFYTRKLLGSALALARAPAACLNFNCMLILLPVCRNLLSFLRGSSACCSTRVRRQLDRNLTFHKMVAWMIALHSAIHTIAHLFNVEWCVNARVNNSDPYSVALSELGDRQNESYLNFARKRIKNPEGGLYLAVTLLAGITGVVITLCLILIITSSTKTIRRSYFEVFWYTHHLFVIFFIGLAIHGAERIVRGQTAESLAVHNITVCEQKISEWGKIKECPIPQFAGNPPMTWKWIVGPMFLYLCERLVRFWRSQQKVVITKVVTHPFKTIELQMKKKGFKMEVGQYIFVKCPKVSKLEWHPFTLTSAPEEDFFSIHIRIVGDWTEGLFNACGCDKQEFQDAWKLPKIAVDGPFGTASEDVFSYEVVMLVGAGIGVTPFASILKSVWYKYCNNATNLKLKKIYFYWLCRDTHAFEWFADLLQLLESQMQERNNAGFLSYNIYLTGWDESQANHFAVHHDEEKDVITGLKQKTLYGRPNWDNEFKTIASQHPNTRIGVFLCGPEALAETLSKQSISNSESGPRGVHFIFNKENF

[3] = molecular target: T3, Duox1 (hDuox1) (Homo sapiens, UniProt Q9NRD9); assay: lucigenin chemiluminescence ROS assay in Drosophila membranes expressing hDuox1
T3 construct: membranes from transgenic Drosophila (Duox knockdown) over-expressing human Duox1
T3 sequence (Q9NRD9 22-1551): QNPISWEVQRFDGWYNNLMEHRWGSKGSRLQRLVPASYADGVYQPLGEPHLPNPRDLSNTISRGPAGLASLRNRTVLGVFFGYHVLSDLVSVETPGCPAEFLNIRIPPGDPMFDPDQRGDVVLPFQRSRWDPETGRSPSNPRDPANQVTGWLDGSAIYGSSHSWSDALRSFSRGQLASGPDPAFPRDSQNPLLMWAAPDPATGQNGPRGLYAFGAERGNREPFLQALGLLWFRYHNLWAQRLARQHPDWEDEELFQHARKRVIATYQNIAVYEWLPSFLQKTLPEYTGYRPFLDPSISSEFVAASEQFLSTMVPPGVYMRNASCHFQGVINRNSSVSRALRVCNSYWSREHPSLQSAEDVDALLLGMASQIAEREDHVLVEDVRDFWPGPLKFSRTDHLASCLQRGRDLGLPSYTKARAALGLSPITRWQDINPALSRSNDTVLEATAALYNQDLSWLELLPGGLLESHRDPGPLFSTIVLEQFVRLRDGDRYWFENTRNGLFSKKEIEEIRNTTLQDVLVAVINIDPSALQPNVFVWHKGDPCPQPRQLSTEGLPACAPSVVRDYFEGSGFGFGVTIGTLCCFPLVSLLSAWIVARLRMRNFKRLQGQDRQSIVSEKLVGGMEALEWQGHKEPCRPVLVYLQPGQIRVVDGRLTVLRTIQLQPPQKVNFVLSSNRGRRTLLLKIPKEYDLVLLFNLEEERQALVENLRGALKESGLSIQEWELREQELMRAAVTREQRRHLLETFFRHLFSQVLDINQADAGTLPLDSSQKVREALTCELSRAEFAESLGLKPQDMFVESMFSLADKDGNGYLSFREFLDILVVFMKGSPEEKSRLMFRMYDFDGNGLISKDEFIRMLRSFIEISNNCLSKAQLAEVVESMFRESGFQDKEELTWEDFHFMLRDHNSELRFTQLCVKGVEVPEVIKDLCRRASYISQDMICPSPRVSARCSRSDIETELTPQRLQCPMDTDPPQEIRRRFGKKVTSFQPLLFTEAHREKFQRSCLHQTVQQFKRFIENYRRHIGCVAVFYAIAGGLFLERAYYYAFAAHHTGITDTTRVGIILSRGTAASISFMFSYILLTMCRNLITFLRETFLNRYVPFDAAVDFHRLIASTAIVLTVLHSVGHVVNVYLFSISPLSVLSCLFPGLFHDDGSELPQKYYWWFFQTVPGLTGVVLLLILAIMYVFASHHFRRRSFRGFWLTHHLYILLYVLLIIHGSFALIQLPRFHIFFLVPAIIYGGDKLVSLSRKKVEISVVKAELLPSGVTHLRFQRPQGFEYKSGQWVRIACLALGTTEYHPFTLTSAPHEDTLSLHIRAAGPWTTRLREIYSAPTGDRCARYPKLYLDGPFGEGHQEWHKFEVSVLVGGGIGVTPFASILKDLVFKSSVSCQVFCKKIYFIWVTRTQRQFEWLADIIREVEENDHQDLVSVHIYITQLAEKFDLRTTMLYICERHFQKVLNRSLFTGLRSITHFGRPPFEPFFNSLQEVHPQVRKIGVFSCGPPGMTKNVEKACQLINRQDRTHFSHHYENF

[4] = molecular target: T4, Nox1 (hNox1) (Homo sapiens, UniProt Q9Y5S8); assay: lucigenin chemiluminescence ROS assay in Drosophila membranes expressing hNox1
T4 construct: membranes from transgenic Drosophila (Duox knockdown) over-expressing human Nox1
T4 sequence (Q9Y5S8 1-564): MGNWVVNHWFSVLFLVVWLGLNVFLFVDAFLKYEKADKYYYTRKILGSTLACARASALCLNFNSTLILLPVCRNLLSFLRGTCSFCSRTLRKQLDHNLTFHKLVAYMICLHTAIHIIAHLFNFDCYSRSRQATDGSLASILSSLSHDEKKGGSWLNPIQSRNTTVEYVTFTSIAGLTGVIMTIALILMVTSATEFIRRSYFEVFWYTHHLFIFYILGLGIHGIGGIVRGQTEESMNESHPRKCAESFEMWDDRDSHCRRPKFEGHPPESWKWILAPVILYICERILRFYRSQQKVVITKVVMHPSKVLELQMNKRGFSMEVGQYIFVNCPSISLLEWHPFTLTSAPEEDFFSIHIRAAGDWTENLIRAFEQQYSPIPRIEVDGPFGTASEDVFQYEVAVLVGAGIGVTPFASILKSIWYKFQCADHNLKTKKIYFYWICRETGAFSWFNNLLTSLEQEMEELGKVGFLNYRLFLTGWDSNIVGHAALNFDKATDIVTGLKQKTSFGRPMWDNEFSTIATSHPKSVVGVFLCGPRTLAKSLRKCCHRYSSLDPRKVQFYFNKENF

Work on `C=C[C@H](OC(C)=O)c1ccc(OC(C)=O)cc1` [compound 26, 1′S-1′-acetoxychavicol acetate] yielded an IC50 [1] of 31.3 µM, an IC50 [2] of 42.3 µM and an IC50 [3] of 30.8 µM. It also gave an IC50 [4] of 32.7 µM.
